pIC50: −log10 of the molar value. Read-outs that look alike come from different tables or passages of the source.
What was measured:
Assay in all cases: Melanoma cytotoxicity assay (resazurin)
Assay type in all cases: cell-based
LOX IMVI = conditions: for pIC50: Homo sapiens; for LOX-IMVI (% inhibition): concentration not given
Procedure: (§1) Cytotoxicity Assay: Melanoma cells (˜4000 cells in each well) were incubated in a 96 well plates at 37° C. in 5% CO2 for 24 hours. Compounds were added in triplicates and the plate was further incubated for 24 hours. DMSO and dacarbazine were added as technical and positive controls respectively. Next day resazurin was added and the plate was further incubated for 6 hours followed by reading the plate at 544 nm (excitation) and 590 nm (emission) using BMG Labtech Fluostar Optima plate reader. IC50 values were determined by using Graphpad Prism.
(§2) On day 1, the cell line trypsinized and centrifuged to form cell pellet. The pellet was diluted in media, then counted using Countess automated cell counter. Approximately 4000 cells (198 uL) per well plated in […]. A control well of 200 uL growth media was also prepared. Wells closest to plate perimeter were filled with 200 uL PBS to prevent inner well evaporation. The 96 well plates are incubated in 37° C. incubator at 5% CO2 for 24 hours.
(§3) On day 2, compounds were added (in triplicate) along with DMSO/Dacarbazine controls (2 uL) added to bring wells to volume of 200 μL. The 96 well plates are incubated in 37° C. incubator at 5% CO2 for 24 hours.
(§4) On day 3, 40 μL of 0.15 mg/ml reszurin solution added to wells. Samples were placed in a 37° C. incubator at 5% CO2 for 6 hours. Excitation and emission for fluorescence measured at 544 nm and 590 nm using BMG Labtech Fluostar Optima plate reader
(§5) Percent viability determined by taking average of each triplicate well fluorescence and subtracting GM well reading to remove the background signal. This difference is then divided by the average of the negative control (DMSO) wells to determine percent viability.
(§6) IC50s were determined by using cereal dilution of compound to determine viability. Viabilities and concentration of cells are analyzed in Graphpad Prism by creating sigmoidal curve graph, which will determine the IC50 concentration.
(§7) We analyzed the ability of the thiazole-androstane derivatives to inhibit growth in various melanoma cell lines. The growth inhibition against melanoma cell lines of various compound is shown below in Tables 19 and 20. Inhibition results are reported as the IC50 concentration in μM of the indicated compound or as the percent viability […] of the indicated compound. NA=not available.

SK-MEL-25 = conditions: for pIC50: Homo sapiens; for SK-MEL-25 (% inhibition): concentration not given
Procedure: as §1, §2, §3, §4, §5, §6, §7

SK-MEL-28 = conditions: for pIC50: Homo sapiens, 24 hours; for pIC50 / SK-MEL-28 (% inhibition): resazurin; for SK-MEL-28 (% inhibition): concentration not given
Procedure: as §1, §2, §3, §4, §5, §6, §7

SK-MEL-5 = conditions: for SK-MEL-5 (% inhibition): resazurin, concentration not given
Procedure: as §1, §2, §3, §4, §5, §6, §7

MALME-3M = system: MALME-3M
Procedure: as §2, §3, §4, §5, §6, §7

[1] = LOX IMVI melanoma cells, 24 hours, resazurin
[2] = SK-MEL-25 melanoma cells, 24 hours, resazurin, read-out: SK-MEL-25 (IC50)
[3] = SK-MEL-25 melanoma cells, 24 hours with compound, resazurin
[4] = SK-MEL-28 melanoma cells, 24 hours with compound
[5] = LOX IMVI melanoma cells, 24 hours with compound, resazurin
[6] = SK-MEL-5 melanoma cells, 24 hours with compound

SMILES	LOX-IMVI (% viability) (LOX IMVI; human, 24 h) [%]	SK-MEL-25 (% viability) (SK-MEL-25; human, 24 h) [%]	SK-MEL-28 (% viability) (SK-MEL-28; human, 24 h) [%]	SK-MEL-5 (% viability) (SK-MEL-5; human, 24 h) [%]	MALME-3M (% viability) (MALME-3M; human, 24 h) [%]	LOX-IMVI (% inhibition) (LOX IMVI; [5]) [%]	further results
C[C@]12CC[C@H]3[C@@H](CC=C4c5sc(NCCc6ccccc6)nc5CC[C@@]43C)[C@@H]1CC[C@@H]2O [IIIa.5, (1S,2R,13R,14S,17S,18S)-2,18-dimethyl-7-(2-phenylethylamino)-8-thia-6-azapentacyclo[11.7.0.02,10.05,9.014,18]icosa-5(9),6,10-trien-17-ol]	10	9.39	4.28	3.49	55.63	–	pIC50 (LOX IMVI; LOX IMVI melanoma cells): 4.96
Cc1ccc(Nc2nc3c(s2)CC[C@@]2(C)C3=CC[C@@H]3[C@@H]2CC[C@]2(C)C(=O)CC[C@@H]32)cc1 [IIa.32, (1S,2R,13R,14S,18S)-2,18-dimethyl-7-(4-methylanilino)-6-thia-8-azapentacyclo[11.7.0.02,10.05,9.014,18]icosa-5(9),7,10-trien-17-one]	–	–	–	–	–	–	pIC50 (LOX IMVI; [1]): 5.05; pIC50 (SK-MEL-25; [2]): 5.30; SK-MEL-25 (% inhibition) (SK-MEL-25; [3]): 87%; pIC50 (SK-MEL-28; SK-MEL-28 melanoma cells): < 4.70; SK-MEL-28 (% inhibition) (SK-MEL-28; [4]): 63%
C[C@]12CCc3nc(-c4ccccc4O)sc3C1=CC[C@@H]1[C@@H]2CC[C@]2(C)C(=O)CC[C@@H]12 [II.11]	–	–	–	–	–	35	–
COc1cccc(-c2nc3c(s2)C2=CC[C@@H]4[C@H](CC[C@]5(C)C(=O)CC[C@@H]45)[C@@]2(C)CC3)c1 [II.9, (1S,2R,13R,14S,18S)-7-(3-methoxyphenyl)-2,18-dimethol-8-thia-6-azapentacyclo[11.7.0.02,10.05,9.014,18]icosa-5(9),7,10-trien-17-one]	–	–	–	–	–	13	–
C[C@]12CCc3nc(-c4ccc(O)cc4)sc3C1=CC[C@@H]1[C@@H]2CC[C@]2(C)C(=O)CC[C@@H]12 [II.4, (1S,2R,13R,14S,18S)-7-(4-hydroxy)-2,18-dimethyl-8-thia-6-azapentacyclo[11.7.0.02,10.05,9.014,18]icosa-5(9),7,10-trien-17-one]	–	–	–	–	–	16	–
C[C@]12CC[C@H]3[C@@H](CC=C4c5sc(Nc6cccc(O)c6)nc5CC[C@@]43C)[C@@H]1CC[C@@H]2O [IIIa.39]	–	–	–	–	–	–	LOX-IMVI (% viability) (LOX IMVI; LOX IMVI melanoma cells, percent viability vs DMSO control, 24 hours with compound): 51%; SK-MEL-25 (% viability) (SK-MEL-25; SK-MEL-25 melanoma cells, percent viability vs DMSO control, 24 hours with compound): 6.33%; SK-MEL-28 (% viability) (SK-MEL-28; SK-MEL-28 melanoma cells, percent viability vs DMSO control, 24 hours with compound): 3.71%; SK-MEL-5 (% viability) (SK-MEL-5; SK-MEL-5 melanoma cells, percent viability vs DMSO control, 24 hours with compound): 6.75%; MALME-3M (% viability) (MALME-3M; MALME-3M melanoma cells, percent viability vs DMSO control, 24 hours with compound): 45.95%
C[C@]12CCc3nc(-c4cccc(O)c4)sc3C1=CC[C@@H]1[C@@H]2CC[C@]2(C)C(=O)CC[C@@H]12 [II.17, (1S,2R,13R,14S,18S)-7-(3-hydroxy)-2,18-dimethyl-8-thia-6-azapentacyclo[11.7.0.02,10.05,9.014,18]icosa-5(9),7,10-trien-17-one]	–	–	–	–	–	17	–
CC(=O)Nc1nc2c(s1)C1=CC[C@H]3[C@@H]4CC[C@H](O)[C@@]4(C)CC[C@@H]3[C@@]1(C)CC2 [IIIa.37, N-[(1S,2R,13R,14S,17S,18S)-17-hydroxy-2,18-dimethyl-8-thia-6-azapentacyclo[11.7.0.02,10.05,9.014,18]icosa-5(9),6,10-trien-7-yl]acetamide]	–	39.57	62.56	48.52	104.91	–	pIC50 (SK-MEL-25; SK-MEL-25 melanoma cells (head prints SK-25), read-out: SK-25 IC50): < 4.70
CNc1nc2c(s1)C1=CC[C@H]3[C@@H]4CC[C@H](O)[C@@]4(C)CC[C@@H]3[C@@]1(C)CC2 [IIIa.2, (1S,2R,13R,14S,17S,18S)-2,18-dimethyl-7-(methylamino)-8-thia-6-azapentacyclo[11.7.0.02,10.05,9.014,18]icosa-5(9),6,10-trien-17-ol]	14	6.21	1.9	2.02	59.51	–	–
C[C@]12CC[C@H]3[C@@H](CC=C4c5sc(Nc6ccccc6[N+](=O)[O-])nc5CC[C@@]43C)[C@@H]1CC[C@@H]2O [IIIa.16, (1S,2R,13R,14S,17S,18S)-2,18-dimethyl-7-(2-nitroanilino)-8-thia-6-azapentacyclo[11.7.0.02,10.05,9.014,18]icosa-5(9),6,10-trien-17-ol]	67	26.7	8.47	10.22	102.39	–	–
CCNc1nc2c(s1)C1=CC[C@H]3[C@@H]4CC[C@H](O)[C@@]4(C)CC[C@@H]3[C@@]1(C)CC2 [IIIa.3, (1S,2R,13R,14S,17S,18S)-7-(ethylamino)-2,18-dimethyl-8-thia-6-azapentacyclo[11.7.0.02,10.05,9.014,18]icosa-5(9),6,10-trien-17-ol]	6	5.06	2.00	2.46	51.83	–	pIC50 (LOX IMVI; LOX IMVI melanoma cells): < 4.70
CCOc1cccc(-c2nc3c(s2)C2=CC[C@@H]4[C@H](CC[C@]5(C)C(=O)CC[C@@H]45)[C@@]2(C)CC3)c1 [II.23]	–	–	–	–	–	52	–
C[C@]12CC[C@H]3[C@@H](CC=C4c5sc(Nc6cccc(C(=O)O)c6)nc5CC[C@@]43C)[C@@H]1CC[C@@H]2O [IIIa.35, 3-[[(1S,2R,13R,14S,17S,18S)-17-hydroxy-2,18-dimethyl-8-thia-6-azapentacyclo[11.7.0.02,10.05,9.014,18]icosa-5(9),6,10-trien-7-yl]amino]benzoic acid]	89	54.19	66.69	106.21	122.92	–	–
C=CCNc1nc2c(s1)C1=CC[C@H]3[C@@H]4CC[C@H](O)[C@@]4(C)CC[C@@H]3[C@@]1(C)CC2 [IIIa.6, (1S,2R,13R,14S,17S,18S)-7-(allylamino)-2,18-dimethyl-8-thia-6-azapentacyclo[11.7.0.02,10.05,9.014,18]icosa-5(9),6,10-trien-17-ol]	11	3.79	2.04	3.52	29.73	–	pIC50 (LOX IMVI; LOX IMVI melanoma cells): < 4.70
C[C@]12CCc3nc(-c4cc(Cl)cc(Cl)c4)sc3C1=CC[C@@H]1[C@@H]2CC[C@]2(C)C(=O)CC[C@@H]12 [II.25]	–	–	–	–	–	89	–
C[C@]12CCc3nc(Cc4ccccc4)sc3C1=CC[C@@H]1[C@@H]2CC[C@]2(C)C(=O)CC[C@@H]12 [II.2]	–	–	–	–	–	17	SK-MEL-25 (% inhibition) (SK-MEL-25; [3]): 69%; SK-MEL-28 (% inhibition) (SK-MEL-28; [4]): 98%; SK-MEL-5 (% inhibition) (SK-MEL-5; [6]): 77%
C[C@]12CCc3sc(Nc4ccccc4Cl)nc3C1=CC[C@@H]1[C@@H]2CC[C@]2(C)C(=O)CC[C@@H]12 [IIa.11, (1S,2R,13R,14S,18S)-7-(2-chloroanilino)-2,18-dimethyl-6-thia-8-azapentacyclo[11.7.0.02,10.05,9.014,18]icosa-5(9),7,10-trien-17-one]	–	–	–	–	–	–	pIC50 (LOX IMVI; [1]): 4.92; pIC50 (SK-MEL-25; [2]): 5.05; SK-MEL-25 (% inhibition) (SK-MEL-25; [3]): 96%; pIC50 (SK-MEL-28; SK-MEL-28 melanoma cells): < 4.70; SK-MEL-28 (% inhibition) (SK-MEL-28; [4]): 88%; SK-MEL-5 (% inhibition) (SK-MEL-5; [6]): 84%
C[C@]12CCc3sc(Nc4ccccn4)nc3C1=CC[C@@H]1[C@@H]2CC[C@]2(C)C(=O)CC[C@@H]12 [IIa.21, (1S,2R,13R,14S,18S)-2,18-dimethyl-7-(2-pyridylamino)-6-thia-8-azapentacyclo[11.7.0.02,10.05,9.014,18]icosa-5(9),7,10-trien-17-one]	–	–	–	–	–	–	SK-MEL-25 (% inhibition) (SK-MEL-25; [3]): 58%; SK-MEL-28 (% inhibition) (SK-MEL-28; [4]): 93%; SK-MEL-5 (% inhibition) (SK-MEL-5; [6]): 88%
C=CCNc1nc2c(s1)CC[C@@]1(C)C2=CC[C@@H]2[C@@H]1CC[C@]1(C)C(=O)CC[C@@H]21 [IIa.3, (1S,2R,13R,14S,18S)-7-(allylamino)-2,18-dimethyl-6-thia-8-azapentacyclo[11.7.0.02,10.05,9.014,18]icosa-5(9),7,10-trien-17-one]	–	–	–	–	–	–	SK-MEL-25 (% inhibition) (SK-MEL-25; [3]): 68%; SK-MEL-28 (% inhibition) (SK-MEL-28; [4]): 65%; SK-MEL-5 (% inhibition) (SK-MEL-5; [6]): 57%

From patent US20250296953A1, “3,4-THIAZOLO-STEROIDS AND METHODS OF MAKING AND USING THE SAME” (Arkansas State University - Jonesboro, priority 2018, published 2025)
